Test results as given in PubChem BioAssay AID260 (DTP/NCI, 2004).
“And” between values parts separate entries of the source, which are not always exact repeats. Equal entries are not always repeated. Toxic doses and inconclusive results are not listed. The calls were made as follows: active = survival T/C of 150% or more; inactive = T/C below 125% in these data.

System: CD2F1 mice, intracerebral L1210 leukemia, survival T/C
Assay: NCI In Vivo Anticancer Drug Screen. Data for tumor model L1210 Leukemia (intracerebral) in CD2F1 (CDF1) mice
Conditions: higher = longer survival
Procedure: The antitumor activity of compounds was measured in mice bearing transplantable tumors. Survival or tumor size were measured and the results are expressed as the measurement made in the treated group (T) divided by the measurement made in the vehicle treated control group (C). The tumor model used in this assay is L1210 Leukemia (intracerebral) in CD2F1 (CDF1) mice

[1] = endpoint: median survival time, dose: 8.0 mg/kg/injection, schedule: Q01DX009 (ip), vehicle: saline with Tween-80
[2] = endpoint: median survival time, dose: 16.0 mg/kg/injection, schedule: Q01DX009 (ip), vehicle: saline with Tween-80

Measured: T/C

Nc1nc(F)nc2c1ncn2C1OC(COP(=O)(O)O)C(O)C1O (centres undefined)
inactive: endpoint: median survival time, dose: 60.0 mg/kg/injection, schedule: Q01DX009 (ip), vehicle: saline 109 % of control | endpoint: median survival time, dose: 90.0 mg/kg/injection, schedule: Q01DX009 (ip), vehicle: saline 106 % of control | endpoint: median survival time, dose: 200.0 mg/kg/injection, schedule: Q01DX009 (ip), vehicle: saline 116 % of control

O=P1(N(CCCl)CCCl)NC(OO)CCO1 (centres undefined)
inactive: endpoint: median survival time, dose: 40.0 mg/kg/injection, schedule: Q01DX001 (ip), vehicle: saline 100 % of control | endpoint: median survival time, dose: 80.0 mg/kg/injection, schedule: Q01DX001 (ip), vehicle: saline 102 % of control | endpoint: median survival time, dose: 160.0 mg/kg/injection, schedule: Q01DX001 (ip), vehicle: saline 103 % of control

CC1(C)N=C(N)N=C(N)N1c1ccc(OCc2ccc(C(=O)Nc3cccc(S(=O)(=O)F)c3)cc2)c(Cl)c1
inactive: endpoint: mean survival time, dose: 50.0 mg/kg/injection, schedule: Q04DX003 (ip), vehicle: saline 111 % of control | endpoint: mean survival time, dose: 100.0 mg/kg/injection, schedule: Q04DX003 (ip), vehicle: saline 111 % of control

CC1CN1C(=O)NCCCCCCNC(=O)N1CC1C (centres undefined)
inactive: endpoint: median survival time, dose: 1.25 mg/kg/injection, schedule: Q01DX009 (ip), vehicle: Klucel (hydroxypropylcellulose) (HPC) 103 % of control | endpoint: median survival time, dose: 2.5 mg/kg/injection, schedule: Q01DX009 (ip), vehicle: Klucel (hydroxypropylcellulose) (HPC) 102 % of control | endpoint: median survival time, dose: 5.0 mg/kg/injection, schedule: Q01DX009 (ip), vehicle: Klucel (hydroxypropylcellulose) (HPC) 112 % of control | endpoint: median survival time, dose: 10.0 mg/kg/injection, schedule: Q01DX009 (ip), vehicle: Klucel (hydroxypropylcellulose) (HPC) 120 % of control | endpoint: median survival time, dose: 20.0 mg/kg/injection, schedule: Q01DX009 (ip), vehicle: Klucel (hydroxypropylcellulose) (HPC) 120 % of control

CCCN(C)/N=N/c1nc[nH]c1C(N)=O
inactive: endpoint: median survival time, dose: 4.0 mg/kg/injection, schedule: Q01DX005 (ip), vehicle: suspension in saline 105 % of control | endpoint: median survival time, dose: 8.0 mg/kg/injection, schedule: Q01DX005 (ip), vehicle: suspension in saline 109 % of control | endpoint: median survival time, dose: 16.0 mg/kg/injection, schedule: Q01DX005 (ip), vehicle: suspension in saline 112 % of control | endpoint: median survival time, dose: 32.0 mg/kg/injection, schedule: Q01DX005 (ip), vehicle: suspension in saline 118 % of control | endpoint: median survival time, dose: 64.0 mg/kg/injection, schedule: Q01DX005 (ip), vehicle: suspension in saline 124 % of control

CN(C)N=Nc1ccc(Cl)cc1
inactive: endpoint: mean survival time, dose: 10.0 mg/kg/injection, schedule: Q01DX007 (ip), vehicle: DMSO 90 % of control | endpoint: mean survival time, dose: 20.0 mg/kg/injection, schedule: Q01DX007 (ip), vehicle: DMSO 91 % of control | endpoint: mean survival time, dose: 40.0 mg/kg/injection, schedule: Q01DX007 (ip), vehicle: DMSO 108 % of control | endpoint: mean survival time, dose: 80.0 mg/kg/injection, schedule: Q01DX007 (ip), vehicle: DMSO 87 % of control | endpoint: mean survival time, dose: 120.0 mg/kg/injection, schedule: Q01DX007 (ip), vehicle: DMSO 91 % of control

C[C@]12C=CC(=O)C=C1CC[C@@H]1[C@@H]2CC[C@]2(C)OC(=O)CC[C@@H]12
inactive: [1] 95 % of control and 111 % of control | [2] 98 % of control and 102 % of control | endpoint: median survival time, dose: 32.0 mg/kg/injection, schedule: Q01DX009 (ip), vehicle: saline with Tween-80 101 % of control and 102 % of control | endpoint: median survival time, dose: 64.0 mg/kg/injection, schedule: Q01DX009 (ip), vehicle: saline with Tween-80 93 % of control and 102 % of control | endpoint: median survival time, dose: 128.0 mg/kg/injection, schedule: Q01DX009 (ip), vehicle: saline with Tween-80 90 % of control and 98 % of control | endpoint: median survival time, dose: 256.0 mg/kg/injection, schedule: Q01DX009 (ip), vehicle: saline with Tween-80 90 % of control and 98 % of control

COc1ccc2cc1Oc1ccc(cc1)C[C@H]1c3cc(c(OC)cc3CCN1C)Oc1c(OC)c(OC)cc3c1[C@H](C2)N(C)CC3
inactive: endpoint: median survival time, dose: 50.0 mg/kg/injection, schedule: Q01DX005 (ip), vehicle: Klucel (hydroxypropylcellulose) (HPC) 90 % of control and 91 % of control | endpoint: median survival time, dose: 100.0 mg/kg/injection, schedule: Q01DX005 (ip), vehicle: Klucel (hydroxypropylcellulose) (HPC) 95 % of control and 98 % of control | endpoint: median survival time, dose: 200.0 mg/kg/injection, schedule: Q01DX005 (ip), vehicle: Klucel (hydroxypropylcellulose) (HPC) 95 % of control and 104 % of control | endpoint: median survival time, dose: 400.0 mg/kg/injection, schedule: Q01DX005 (ip), vehicle: Klucel (hydroxypropylcellulose) (HPC) 101 % of control

COc1cccc2c1C(=O)c1c(O)c3c(c(O)c1C2=O)C[C@@](O)(/C(C)=N/NC(=O)c1ccccc1)C[C@@H]3OC1CC(N)C(O)C(C)O1 (some centres undefined)
inactive: endpoint: median survival time, dose: 1.0 mg/kg/injection, schedule: Q01DX009 (ip), vehicle: saline with Tween-80 114 % of control | endpoint: median survival time, dose: 1.0 mg/kg/injection, schedule: Q01DX009 (ip), vehicle: saline 98 % of control and 104 % of control | endpoint: median survival time, dose: 2.0 mg/kg/injection, schedule: Q01DX009 (ip), vehicle: saline with Tween-80 123 % of control | endpoint: median survival time, dose: 2.0 mg/kg/injection, schedule: Q01DX009 (ip), vehicle: saline 103 % of control and 104 % of control | endpoint: median survival time, dose: 4.0 mg/kg/injection, schedule: Q01DX009 (ip), vehicle: saline with Tween-80 123 % of control | endpoint: median survival time, dose: 4.0 mg/kg/injection, schedule: Q01DX009 (ip), vehicle: saline 106 % of control and 110 % of control | [1] 101 % of control | endpoint: median survival time, dose: 8.0 mg/kg/injection, schedule: Q01DX009 (ip), vehicle: saline 92 % of control and 116 % of control | [2] 89 % of control

N=[N+]=CC(=O)CCC(NC(=O)C(CCC(=O)C=[N+]=N)NC(=O)CCC(N)C(=O)O)C(=O)O (centres undefined)
inactive: endpoint: median survival time, dose: 0.05 mg/kg/injection, schedule: Q01DX005 (ip), vehicle: Klucel (hydroxypropylcellulose) (HPC) 95 % of control and 100 % of control | endpoint: median survival time, dose: 0.1 mg/kg/injection, schedule: Q01DX005 (ip), vehicle: Klucel (hydroxypropylcellulose) (HPC) 93 % of control and 100 % of control | endpoint: median survival time, dose: 0.2 mg/kg/injection, schedule: Q01DX005 (ip), vehicle: Klucel (hydroxypropylcellulose) (HPC) 96 % of control and 102 % of control | endpoint: median survival time, dose: 0.4 mg/kg/injection, schedule: Q01DX005 (ip), vehicle: Klucel (hydroxypropylcellulose) (HPC) 94 % of control and 100 % of control

O=NN(CCCl)C(=O)NC1CCCCC1
inactive: endpoint: median survival time, dose: 4.0 mg/kg/injection, schedule: Q01DX001 (ip), vehicle: other 112 % of control | endpoint: median survival time, dose: 8.0 mg/kg/injection, schedule: Q01DX001 (ip), vehicle: saline + alcohol 106 % of control | endpoint: median survival time, dose: 16.0 mg/kg/injection, schedule: Q01DX001 (ip), vehicle: saline + alcohol 118 % of control | endpoint: median survival time, dose: 256.0 mg/kg/injection, schedule: Q01DX001 (ip), vehicle: saline + alcohol 90 % of control
active: endpoint: median survival time, dose: 16.0 mg/kg/injection, schedule: Q01DX001 (ip), vehicle: other 177 % of control | endpoint: median survival time, dose: 32.0 mg/kg/injection, schedule: Q01DX001 (ip), vehicle: other 415 % of control | endpoint: median survival time, dose: 64.0 mg/kg/injection, schedule: Q01DX001 (ip), vehicle: saline + alcohol 389 % of control | endpoint: median survival time, dose: 128.0 mg/kg/injection, schedule: Q01DX001 (ip), vehicle: saline + alcohol 168 % of control

CN(CCO)/N=N/c1nc[nH]c1C(N)=O
inactive: endpoint: median survival time, dose: 32.0 mg/kg/injection, schedule: Q01DX005 (ip), vehicle: saline with Tween-80 107 % of control | endpoint: median survival time, dose: 64.0 mg/kg/injection, schedule: Q01DX005 (ip), vehicle: saline with Tween-80 106 % of control | endpoint: median survival time, dose: 128.0 mg/kg/injection, schedule: Q01DX005 (ip), vehicle: saline with Tween-80 109 % of control | endpoint: median survival time, dose: 256.0 mg/kg/injection, schedule: Q01DX005 (ip), vehicle: saline with Tween-80 119 % of control

Nc1n[nH]c(N)n1
inactive: endpoint: mean survival time, dose: 512.0 mg/kg/injection, schedule: Q12HX018 (ip), vehicle: saline 96 % of control | endpoint: mean survival time, dose: 1024.0 mg/kg/injection, schedule: Q12HX018 (ip), vehicle: saline 107 % of control | endpoint: mean survival time, dose: 2048.0 mg/kg/injection, schedule: Q12HX018 (ip), vehicle: saline 110 % of control | endpoint: median survival time, dose: 128.0 mg/kg/injection, schedule: Q01DX005 (ip), vehicle: saline 107 % of control and 116 % of control | endpoint: median survival time, dose: 256.0 mg/kg/injection, schedule: Q01DX005 (ip), vehicle: saline 108 % of control and 111 % of control | endpoint: median survival time, dose: 512.0 mg/kg/injection, schedule: Q01DX005 (ip), vehicle: saline 120 % of control and 115 % of control | endpoint: median survival time, dose: 1024.0 mg/kg/injection, schedule: Q01DX005 (ip), vehicle: saline 119 % of control

CN(C)c1nc(N(C)C)nc(N(C)C)n1
inactive: endpoint: median survival time, dose: 100.0 mg/kg/injection, schedule: Q01DX005 (ip), vehicle: saline with Tween-80 121 % of control | endpoint: median survival time, dose: 100.0 mg/kg/injection, schedule: Q01DX005 (ip), vehicle: suspension in saline 102 % of control | endpoint: median survival time, dose: 200.0 mg/kg/injection, schedule: Q01DX005 (ip), vehicle: saline with Tween-80 101 % of control | endpoint: median survival time, dose: 200.0 mg/kg/injection, schedule: Q01DX005 (ip), vehicle: suspension in saline 101 % of control | endpoint: median survival time, dose: 400.0 mg/kg/injection, schedule: Q01DX005 (ip), vehicle: suspension in saline 100 % of control | endpoint: median survival time, dose: 800.0 mg/kg/injection, schedule: Q01DX005 (ip), vehicle: suspension in saline 118 % of control

CN(C)C1=C(N2CC2)C(=O)C(N(C)C)=C(N2CC2)C1=O
inactive: endpoint: mean survival time, dose: 0.75 mg/kg/injection, schedule: Q04DX003 (ip), vehicle: saline 122 % of control and 110 % of control
active: endpoint: mean survival time, dose: 1.5 mg/kg/injection, schedule: Q04DX003 (ip), vehicle: saline 152 % of control and 154 % of control | endpoint: mean survival time, dose: 3.0 mg/kg/injection, schedule: Q04DX003 (ip), vehicle: saline 156 % of control and 172 % of control
